Source: patent US9642922B2, “Caspase-triggered nano-aggregation probes and methods of use” (The Board of Trustees of the Leland Stanford Junior …, priority 2013, dated 2017)
Numbered stars: 1 amine (or outer) side, 2 acyl side, 3 side chain; on linkers, the order of the positions; unused ones are H or OH. Square brackets hold non-standard residues; d marks the D form. Peptide text beside a SMILES is read from it. * marks the point of attachment. DOTA = O=C(O)CN1CCN(CC(=O)O)CCN(CC(=O)*)CCN(CC(=O)O)CC1; X1 = O=C(C1CSC(c2nc3ccc(N[*:1])cc3s2)=N1)[*:2]; X2 = N#Cc1ccc2cc(OCCCN*)ccc2n1; SEt = CCS*

Legend:
[1] = Blood circulation and elimination in healthy nude mice; conditions: 5 nmol i.v.
[2] = tested on: DOX-induced apoptotic HeLa cells; test: Flow cytometry of DOX-induced apoptotic HeLa cells labeled with probes; type: cell-based, human; conditions: 5 μM DOX, 2 μM probe, 24 h
Protocol: For the DOX-induced apoptotic cells, HeLa cells in 12-well plates were co-incubated with DOX (5 μM) and 2 μM C-SNAF, L-ctrl and D-ctrl, or 2 μM C-SNAF together with 50 μM Z-VAD-fmk for 24 h. After washing with PBS (1×) three times, the cells pellets were resuspended in 300 μL PBS, and applied for flow cytometry analysis using the Cy5.5 channels. The cell number for each flow cytometry analysis was approximately 5×10^3 to 10^4, and the data was processed using FlowJo software.

caspase-9 = target: T1, caspase-9 (Homo sapiens, UniProt P55211); test: HPLC enzyme specificity assay of C-SNAF, caspase-9; type: biochemical; conditions: 25 μM probe, 0.735 μg/ml enzyme
T1 construct: purchased Calbiochem; host or cells: E. coli
T1 sequence (P55211 1-315 limits assumed): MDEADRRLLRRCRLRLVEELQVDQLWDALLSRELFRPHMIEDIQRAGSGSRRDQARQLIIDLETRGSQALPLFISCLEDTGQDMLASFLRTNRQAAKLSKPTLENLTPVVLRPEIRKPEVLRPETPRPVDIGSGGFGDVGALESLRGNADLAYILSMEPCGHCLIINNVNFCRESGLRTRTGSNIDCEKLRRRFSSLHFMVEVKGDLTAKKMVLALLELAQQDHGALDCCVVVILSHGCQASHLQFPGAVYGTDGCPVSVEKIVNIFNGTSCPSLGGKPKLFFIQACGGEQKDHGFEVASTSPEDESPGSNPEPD
Protocol: (§1) The specificity of C-SNAF towards other representative cysteine proteases such as caspase-7, caspase-9, cathepsin B, and legumain was examined.
(§2) Caspase (human, recombinant from E. coli) assays were performed for caspase-3 (4.9×10^−3 U; 7.35×10^−4 mg, Sigma), −7 (18.3 U; 7.35×10^−4 mg, Calbiochem), and −9 (0.3 U; 7.35×10^−4 mg, Calbiochem). All caspase assays were conducted in caspase buffer with 50 mM HEPES, 100 mM NaCl, 1 mM EDTA, 10 mM TCEP, 10% glycerol, and 0.1% CHAPS at pH 7.4. Cathepsin B (human liver; 0.27 U; 7.35×10^−4 mg, Calbiochem) and Legumain (human, recombinant from mouse myeloma cell line; >250 pmol/min/μg; 7.35×10^−4 mg, R&D Systems) were conducted in reaction buffer with 50 mM sodium acetate, 50 mM NaCl, 0.5 mM EDTA and 10 mM TCEP at pH 5.5. C-SNAF was diluted in the respective enzyme reaction buffer (25 μM, 1 mL) and remained at room temperature for 10 min, to which was then added the respective enzymes. Reactions were performed at 37° C., and monitored by HPLC hourly. The percentage conversion of the reaction was calculated based on the percentage of peak area of C-SNAF-cycl in the HPLC trace at 675 nm UV detection, which indicated the efficacy of enzyme cleavage of C-SNAF.

cathepsin B = target: T2, cathepsin B (Homo sapiens, UniProt P07858); test: HPLC enzyme specificity assay of C-SNAF, cathepsin B; type: biochemical; conditions: 25 μM probe, 0.735 μg/ml enzyme, pH 5.5
T2 construct: Cathepsin B (human liver; 0.27 U; 7.35×10^−4 mg, Calbiochem); purchased Calbiochem; host or cells: human liver (tissue-derived)
Protocol: as §1, §2

[3] = tested on: STS-induced apoptotic HeLa cells; test: Flow cytometry of STS-induced apoptotic HeLa cells labeled with probes; type: cell-based, human
Protocol: Approximately 10^5 HeLa cells in 1 mL DMEM medium were seeded onto 12-well plates. […] For the inhibitor blocking experiment, the STS-treated cells were first incubated with the caspase inhibitor Z-VAD-fmk (50 μM, R&D Systems) for 30 min, and then 2 μM C-SNAF was added. All cells incubations were 24 h, followed by staining with FLICA (FAM) after trypsinization. After washing with PBS (1×) three times, the cell pellets were resuspended in 300 μL PBS and applied for flow cytometry analysis using the FITC and Cy5.5 channels. The cell number for each flow cytometry analysis was approximately 5000 to 10000, and the data was processed using FlowJo software.

caspase-3 [4] = target: T3, caspase-3 (Homo sapiens, UniProt P42574); test: HPLC assay of caspase-3-triggered macrocyclization of C-SNAF; type: biochemical; parameters: purchased Sigma; host or cells: E. coli; conditions: probe 25 μM, caspase-3, 6 h
T3 sequence (P42574 29-175 limits assumed): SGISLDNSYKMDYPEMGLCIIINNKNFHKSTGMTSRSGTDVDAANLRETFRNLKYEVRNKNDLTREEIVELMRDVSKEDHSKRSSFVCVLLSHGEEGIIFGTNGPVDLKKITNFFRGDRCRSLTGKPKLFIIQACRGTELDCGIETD
T3 sequence (P42574 176-277 limits assumed): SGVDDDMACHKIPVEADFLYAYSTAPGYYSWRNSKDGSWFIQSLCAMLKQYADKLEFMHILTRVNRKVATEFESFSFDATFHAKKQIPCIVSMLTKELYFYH
Protocol: The progression of caspase-3-triggered macrocyclization of C-SNAF to form C-SNAF-cycl in solution was monitored using high-performance liquid chromatography (HPLC) following incubation of the probe (25 μM) with recombinant human caspase-3 (4.9×10^−[…]).
as §2

caspase-3 [5] = target: T3, caspase-3; test: HPLC assay of caspase-3-triggered cyclization of MRI probe 15; type: biochemical; parameters: purchased Sigma; host or cells: E. coli; conditions: 200 μM probe, caspase-3 50 nM, 5 h
Protocol: The progression of caspase-3-triggered intramolecular cyclization of probe 15 in solution was investigated by incubation (200 μM) with recombinant human caspase-3 (50 nM) using high-performance liquid chromatography (HPLC). […] More than 90% of probe 15 and its disulfide bond reduced intermediates could be converted after 5 h (FIG. 27B).

HeLa cell pellets = test: MRI T1 of HeLa cell pellets at 1 T; type: cell-based, human; conditions: 250 μM, 24 h
Excerpt: Thus, higher caspase-3 activity in apoptotic cells can trap probe 15 inside cells, resulting in higher MRI contrast for cell apoptosis imaging.

legumain = target: T4, legumain (Homo sapiens, UniProt Q99538); test: T1 measurement of probe 15 with legumain; type: biochemical; conditions: probe 208 μM, protease 50 nM, 1 T
T4 construct: purchased R&D Systems; host or cells: mouse myeloma cell line
T4 sequence (Q99538 18-323): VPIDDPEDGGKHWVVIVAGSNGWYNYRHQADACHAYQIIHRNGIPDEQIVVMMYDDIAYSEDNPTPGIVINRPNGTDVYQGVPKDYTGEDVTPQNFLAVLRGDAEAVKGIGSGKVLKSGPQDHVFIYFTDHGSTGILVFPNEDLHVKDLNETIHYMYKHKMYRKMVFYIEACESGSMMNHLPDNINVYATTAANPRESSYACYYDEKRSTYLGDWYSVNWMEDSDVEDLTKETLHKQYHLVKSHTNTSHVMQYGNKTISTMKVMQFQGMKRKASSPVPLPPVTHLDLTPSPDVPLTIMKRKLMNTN
Protocol: The enzyme specificity of probe 15 was studied by measuring the T1 value resulting from probe incubation (208 μM) with any of five relevant subcellular proteases (caspase-3, -7, -9, cathepsin B and legumain) in enzyme buffer. […] The reduced T1 value in solution was inhibited by the caspase inhibitor Z-VAD-fmk (50 μM).
Cathepsin B (human liver; 0.27 U; 7.35×10^−4 mg, Calbiochem) and Legumain (human, recombinant from mouse myeloma cell line; >250 pmol/min/μg; 7.35×10^−4 mg, R&D Systems) were conducted in reaction buffer with 50 mM sodium acetate, 50 mM NaCl, 0.5 mM EDTA and 10 mM TCEP at pH 5.5. The C-SNAF was diluted in the respective enzyme reaction buffer (25 μM, 1 mL) and remained at room temperature for 10 min, to which was added respective enzymes.

| probe and disulfide-reduced intermediates converted to cyclized products (caspase-3 [5]) | T1 value after incubation with legumain (legumain) | SMILES | blood half-life [1] [h] | time of nearly complete elimination after administration [1] [h] | increase in Cy5.5 intensity of DOX-induced apoptotic cells compared to no probe or control probes [2] [fold] | activity of caspase-9 towards probe (caspase-9) | activation by cathepsin B (cathepsin B) | labeling of FLICA-positive apoptotic cells ([3]; 2 μM probe, STS-induced apoptotic HeLa) | increase in Cy5.5 fluorescence of apoptotic relative to viable cells ([3]; 2 μM probe, STS-treated HeLa, flow cytometry) [fold] | effect of caspase inhibitor Z-VAD-fmk on the increased fluorescence ([3]; Z-VAD-fmk 50 μM) | conversion to C-SNAF-cycl after 6 h (caspase-3 [4]) | reduction of T1 value in STS-treated versus non-treated cell pellets (HeLa cell pellets) |
| --- | --- | --- | --- | --- | --- | --- | --- | --- | --- | --- | --- | --- |
|  |  | CCSSC[C@@H](NC(=O)[C@H](CC(=O)O)NC(=O)[C@@H](NC(=O)[C@H](CCC(=O)O)NC(=O)[C@H](CC(=O)O)NC(C)=O)C(C)C)C(=O)N[C@@H](CCCCNC(=O)CCCCCN1C(=CC=CC=CC2=[N+](CC)c3ccc4c(S(=O)(=O)[O-])cc(S(=O)(=O)O)cc4c3C2(C)C)C(C)(C)c2c1ccc1c(S(=O)(=O)O)cc(S(=O)(=O)O)cc21)C(=O)Nc1ccc2nc(C3=N[C@@H](C(=O)NCCCOc4ccc5nc(C#N)ccc5c4)CS3)sc2c1 [C-SNAF] | 1.0 ± 0.45 | ≤ 12 | ~4 | essentially no activity | neither lysosomal cysteine proteases cathepsin B nor legumain could significantly activate | efficiently labeled | ~13 | inhibited by Z-VAD-fmk | almost completely converted to C-SNAF-cycl |  |
| More than 90% | No reduced T1 value | CCSSCC(NC(=O)C(CC(=O)O)NC(=O)C(NC(=O)C(CCC(=O)O)NC(=O)C(CC(=O)O)NC(C)=O)C(C)C)C(=O)NC(CCCCNC(=O)CN1CCN(CC(=O)[O-])CCN(CC(=O)[O-])CCN(CC(=O)[O-])CC1)C(=O)Nc1ccc2nc(C3=NC(C(=O)NCCCOc4ccc5nc(C#N)ccc5c4)CS3)sc2c1.[Gd+3] (stereo not drawn) [probe 15] (Ac-DEVDC(SEt)K(DOTA)[X1]-X2; configuration not given here) |  |  |  |  |  |  |  |  |  | about 3 fold |
